Patent US20100144760A1, “NOVEL COMPOUNDS” (priority 2008, published 2010)
Ends that are not written are not given here.

How the values were obtained:
human Orexin-1 receptor = target: T1, human Orexin-1 receptor (Homo sapiens, UniProt O43613); assay: Antagonist affinity at human Orexin-1 receptor using FLIPR ([Ca2+]i); format: cell-based; conditions: functional pKi from IC50 by modified Cheng-Prusoff correction
T1 sequence (O43613 1-425 A280G): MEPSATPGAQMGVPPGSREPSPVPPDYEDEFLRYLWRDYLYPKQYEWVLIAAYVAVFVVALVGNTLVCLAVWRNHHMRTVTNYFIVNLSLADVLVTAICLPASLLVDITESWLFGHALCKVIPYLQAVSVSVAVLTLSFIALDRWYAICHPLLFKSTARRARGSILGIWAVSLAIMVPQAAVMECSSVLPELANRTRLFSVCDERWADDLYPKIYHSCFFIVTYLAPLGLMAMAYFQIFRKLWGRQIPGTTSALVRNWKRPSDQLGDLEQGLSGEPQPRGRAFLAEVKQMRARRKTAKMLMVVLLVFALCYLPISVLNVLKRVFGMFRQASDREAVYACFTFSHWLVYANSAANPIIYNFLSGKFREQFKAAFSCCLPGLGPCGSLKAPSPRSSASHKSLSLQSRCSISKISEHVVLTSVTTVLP
From the text: (§1) Determination of antagonist affinity at human Orexin-1 and 2 receptors using FLIPR
(§2) Adherent Chinese Hamster Ovary (CHO) cells, stably expressing the recombinant human Orexin-1 or human Orexin-2 receptors or Rat Basophilic Leukaemia Cells (RBL) stably expressing recombinant rat Orexin-1 or rat Orexin-2 receptors were maintained in culture in Alpha Minimum Essential Medium (Gibco/Invitrogen, cat. no.; 22571-020), supplemented with 10% decomplemented foetal bovine serum (Life Technologies, cat. no. 10106-078) and 400 μg/mL Geneticin G418 (Calbiochem, cat. no. 345810). Cells were grown as monolayers under 95%:5% air: CO2 at 37° C.
(§3) The sequences of the human orexin 1, human orexin 2, rat orexin 1 and rat orexin 2 receptors used in this example were as published in Sakurai, T. et al (1998) Cell, 92 pp 573 to 585. Some examples were tested against the human orexin 1 receptor as published in Sakurai et al supra with the exception that the amino acid residue at position 280 was alanine and not glycine.
(§4) Cells were seeded into black clear-bottom 384-well plates (density of 20,000 cells per well) in culture medium as described above and maintained overnight (95%:5% air:CO2 at 37° C.). On the day of the experiment, culture medium were discarded and the cells washed three times with standard buffer (NaCl, 145 mM; KCl, 5 mM; HEPES, 20 mM; Glucose, 5.5 mM; MgCl2, 1 mM; CaCl2, 2 mM) added with Probenecid 2.5 mM. The plates were then incubated at 37° C. for 60 minutes in the dark with 2 μM FLUO-4AM dye to allow cell uptake of the FLUO-4AM, which is subsequently converted by intracellular esterases to FLUO-4, which is unable to leave the cells. After incubation, cells were washed three times with standard buffer to remove extracellular dye and 30 μL of buffer were left in each well after washing.
(§5) Compounds of the invention were tested in a final assay concentration range from 1.66×10^−5M to 1.58×10^−11M. Compounds of the invention were dissolved in dimethylsulfoxide (DMSO) at a stock concentration of 10 mM. These stock solutions were serially diluted with DMSO and 1 μL of each dilution was transferred to a 384 well compound plate. Immediately before introducing compound to the cells, buffer solution (50 μl/well) was added to this plate. To allow agonist stimulation of the cells, a stock plate containing a solution of human orexin A (hOrexin A) was diluted with buffer to final concentration just before use. This final concentration of hOrexin A was equivalent to the calculated EC80 for hOrexinA agonist potency in this test system. This value was obtained by testing hOrexinA in concentration response curve (at least 16 replicates) the same day of the experiment.
(§6) The loaded cells were then incubated for 10 min at 37° C. with test compound. The plates were then placed into a FLIPR™ (Molecular Devices, UK) to monitor cell fluorescence (λex=488 nm, λEM=540 nm) (Sullivan E, Tucker E M, Dale I L. Measurement of [Ca^2+]i using the fluometric imaging plate reader (FLIPR). In: Lambert DG (ed.), Calcium Signaling Protocols. New Jersey: Humana Press, 1999, 125-136). A baseline fluorescence reading was taken over a 5 to 10 second period, and then 10 μL of EC80 hOrexinA solution was added. The fluorescence was then read over a […] period.
Functional responses using FLIPR were measured as peak fluorescence intensity minus basal fluorescence and expressed as a percentage of a non-inhibited Orexin-A-induced response on the same plate. Iterative curve-fitting and parameter estimations were carried out using a four parameter logistic model and Microsoft Excel (Bowen W P, Jerman J C. Nonlinear regression using spreadsheets. Trends Pharmacol. Sci. 1995; 16: 413-417). […]

human Orexin-2 receptor = target: T2, human Orexin-2 receptor (Homo sapiens, UniProt O43614); assay: Antagonist affinity at human Orexin-2 receptor using FLIPR ([Ca2+]i); format: cell-based; conditions: functional pKi from IC50 by modified Cheng-Prusoff correction, read-out: fpKi Orexin 2 receptor (converted)
T2 construct: expressed in transfected cells
T2 sequence (O43614 1-444): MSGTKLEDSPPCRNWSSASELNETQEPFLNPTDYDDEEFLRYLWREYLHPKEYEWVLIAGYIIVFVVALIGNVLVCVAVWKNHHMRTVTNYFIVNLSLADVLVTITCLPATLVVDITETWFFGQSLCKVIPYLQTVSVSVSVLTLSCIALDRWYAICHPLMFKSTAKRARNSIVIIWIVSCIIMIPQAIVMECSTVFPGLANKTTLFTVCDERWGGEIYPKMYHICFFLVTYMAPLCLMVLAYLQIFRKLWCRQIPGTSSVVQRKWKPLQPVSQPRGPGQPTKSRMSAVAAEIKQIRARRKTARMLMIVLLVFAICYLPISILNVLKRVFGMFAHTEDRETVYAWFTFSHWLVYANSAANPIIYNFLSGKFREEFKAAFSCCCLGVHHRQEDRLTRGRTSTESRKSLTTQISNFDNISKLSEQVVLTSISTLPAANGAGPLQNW
From the text: as §1, §2, §3, §4, §5, §6
Functional responses using FLIPR were measured as peak fluorescence intensity minus basal fluorescence and expressed as a percentage of a non-inhibited Orexin-A-induced response on the same plate. Iterative curve-fitting and parameter estimations were carried out using a four parameter logistic model and Microsoft Excel (Bowen W P, Jerman J C. Nonlinear regression using spreadsheets. Trends Pharmacol. Sci. 1995; 16: 413-417).

rats [1] = conditions: cited from earlier work
rats [2] = conditions: cited from earlier work; remark: listed apart in the source
freely-feeding rats = conditions: central administration, 4 hour time period; cited from earlier work
rats [3] = conditions: central administration at the onset of the normal sleep period; cited from earlier work

Molecule	fpKi Orexin 1 receptor (human Orexin-1 receptor)	Ki (human Orexin-2 receptor)	further results
Cc1ccc(-c2ncccc2C)c(C(=O)N2C[C@@H]3C[C@@H]3C[C@H]2CNc2ccc(C(F)(F)F)cn2)n1 [Example 51, N-({(1R,4S,6R)-3-[(3,6′-dimethyl-2,3′-bipyridin-2′-yl)carbonyl]-3-azabicyclo[4.1.0]hept-4-yl}methyl)-5-(trifluoromethyl)-2-pyridinamine]	9.2	15.8 nM	
Cc1cnn(-c2ccc(C)nc2C(=O)N2C[C@@H]3C[C@@H]3C[C@H]2CNc2ccc(C(F)(F)F)cn2)c1 [Example 52, N-[((1R,4S,6R)-3-{[6-methyl-3-(4-methyl-1H-pyrazol-1-yl)-2-pyridinyl]carbonyl}-3-azabicyclo[4.1.0]hept-4-yl)methyl]-5-(trifluoromethyl)-2-pyridinamine]	9.2	0.398 nM	
Cc1ccc(C(=O)N2C[C@@H]3C[C@@H]3C[C@H]2CNc2ccc(C(F)(F)F)cn2)nc1-c1ncccn1 [Example 53, N-[((1R,4S,6R)-3-{[5-methyl-6-(2-pyrimidinyl)-2-pyridinyl]carbonyl}-3-azabicyclo[4.1.0]hept-4-yl)methyl]-5-(trifluoromethyl)-2-pyridinamine]	6.0	> 3310 nM	
Cc1coc(-c2ccc(C)nc2C(=O)N2C[C@@H]3C[C@@H]3C[C@H]2CNc2ncc(C(F)(F)F)cn2)n1 [Example 59, N-[((1R,4S,6R)-3-{[6-methyl-3-(4-methyl-1,3-oxazol-2-yl)-2-pyridinyl]carbonyl}-3-azabicyclo[4.1.0]hept-4-yl)methyl]-5-(trifluoromethyl)-2-pyrimidinamine]	6.0	1580 nM	
Cc1nc2ccc(NC(=O)Nc3ccnc4cccnc34)cc2o1 [SB334867]			hedonic eating (rats [1]): potently reduced; high-fat pellet self-administration (rats [2]): attenuated
orexin-A: polypeptide ligand for the orexin-1 receptor; an agonist of the orexin receptors (QPLPDCCRQKTCSCRLYELLHGAGNHAAGILTL; ends and bridges not checked; cysteine pairing not given here; UniProt O43612 34-66, looked up)			increase of food intake over control rats receiving vehicle (freely-feeding rats): approximately four-fold; arousal (sleep/EEG) (rats [3]): dose-related increase in arousal

Continued, in another order:

fpKi Orexin 1 receptor (human Orexin-1 receptor)	Ki (human Orexin-2 receptor)	Molecule	further results
9.3	3.98 nM	Cc1ccc(NC[C@@H]2C[C@H]3C[C@H]3CN2C(=O)c2nc(C)ccc2OCC2CC2)nc1 [Example 54, N-{[(1R,4S,6R)-3-({3-[(cyclopropylmethyl)oxy]-6-methyl-2-pyridinyl}carbonyl)-3-azabicyclo[4.1.0]hept-4-yl]methyl}-5-methyl-2-pyridinamine]	
9.1	100 nM	CCOc1ccc(C)nc1C(=O)N1C[C@@H]2C[C@@H]2C[C@H]1CNc1ncc(C)cn1 [Example 55, N-[((1R,4S,6R)-3-{[3-(ethyloxy)-6-methyl-2-pyridinyl]carbonyl}-3-azabicyclo[4.1.0]hept-4-yl)methyl]-5-methyl-2-pyrimidinamine]	
9.5		CCOc1ccc(C)nc1C(=O)N1C[C@@H]2C[C@@H]2C[C@H]1CNc1ncc(C(F)(F)F)cn1 [Example 56, N-[((1R,4S,6R)-3-{[3-(ethyloxy)-6-methyl-2-pyridinyl]carbonyl}-3-azabicyclo[4.1.0]hept-4-yl)methyl]-5-(trifluoromethyl)-2-pyrimidinamine]	
9.5	63.1 nM	CCCOc1ccc(C)nc1C(=O)N1C[C@@H]2C[C@@H]2C[C@H]1CNc1ncc(C(F)(F)F)cn1 [Example 57, N-[((1R,4S,6R)-3-{[6-methyl-3-(propyloxy)-2-pyridinyl]carbonyl}-3-azabicyclo[4.1.0]hept-4-yl)methyl]-5-(trifluoromethyl)-2-pyrimidinamine]	
9.0	1.26 nM	CCCOc1ccc(C)nc1C(=O)N1C[C@@H]2C[C@@H]2C[C@H]1CNc1cnc(C)c(C)n1 [Example 58, 5,6-dimethyl-N-[((1R,4S,6R)-3-{[6-methyl-3-(propyloxy)-2-pyridinyl]carbonyl}-3-azabicyclo[4.1.0]hept-4-yl)methyl]-2-pyrazinamine]	
